Earlier results in publication PMC10381184, “Unprecedented Antimicrobial and Cytotoxic Polyketides from Cultures of Diaporthe africana sp. nov” (Journal of Fungi, 2023).

Test system: MptpB
Settings: result in words; ref 63 (Cui et al.); cited from earlier work

For `CC(C)=CCc1ccc(O)c2c1[C@H](c1cc(C)cc3c1O[C@H](C(C)(C)O)CO3)NC2=O` [diaporisoindole B], the “inhibitory activity against MptpB” value is listed as “failed to show any activity”.
